Values of other authors, collected in patent US9457026B2, “Methods for producing aripiprazole suspension and freeze-dried formulation” (OTSUKA PHARMACEUTICAL CO., LTD., priority 2007, dated 2016).

Conditions: room temperature

- aqueous solubility: < 1 µg/mL
Structure (SMILES): O=C1CCc2ccc(OCCCCN3CCN(c4cccc(Cl)c4Cl)CC3)cc2N1 [Aripiprazole]
